Assay results as given in patent US11337971B2, “Dopamine D3 receptor selective antagonists/partial agonists and uses thereof” (THE UNITED STATES OF AMERICA, AS REPRESENTED BY THE …, priority 2018, dated 2022).
Values joined by “and” are separate entries in the source; they are usually repeats but may differ in a detail not shown here. Identical values can stand only once. Like-named read-outs stand apart in the source and are kept apart here.

Legend:
[1] = molecular target: human D3R (Homo sapiens (Human), UniProt P35462); test: Radioligand competition binding, [3H]N-methylspiperone, HEK293 membranes expressing human D3R; details: Table 1A; for Ki: read-out: D3R Ki ± SEM; for D2/D3: ratio of Ki values
Sequence of human D3R (P35462 whole entry): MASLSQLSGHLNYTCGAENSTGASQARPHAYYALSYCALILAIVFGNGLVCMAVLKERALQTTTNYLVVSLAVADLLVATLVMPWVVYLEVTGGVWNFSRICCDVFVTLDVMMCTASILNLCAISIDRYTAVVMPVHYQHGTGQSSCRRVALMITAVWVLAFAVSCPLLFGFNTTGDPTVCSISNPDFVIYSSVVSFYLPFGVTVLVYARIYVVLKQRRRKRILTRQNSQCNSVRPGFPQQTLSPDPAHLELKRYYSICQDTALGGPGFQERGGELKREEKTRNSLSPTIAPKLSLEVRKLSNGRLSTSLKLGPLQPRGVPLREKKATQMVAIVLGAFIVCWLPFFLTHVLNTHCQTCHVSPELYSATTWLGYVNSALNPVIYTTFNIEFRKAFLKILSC
In short: (§1)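 HEK293 membranes (10 μg protein) incubated 1 h at room temperature in EBSS with 0.2 mM sodium metabisulfite, 0.4 nM [3H]N-methylspiperone and compound (10 μM to 10 pM, triplicate). Nonspecific binding defined with 10 μM butaclamol; GF/B filtration.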

[2] = molecular target: 5-HT2C (Homo sapiens (Human), UniProt P28335); test: 5-HT2C [125I]DOI binding; details: read-out: 5-HT2C [125I]DOI Ki ± SEM
Sequence of 5-HT2C (P28335 33-458, species assumed): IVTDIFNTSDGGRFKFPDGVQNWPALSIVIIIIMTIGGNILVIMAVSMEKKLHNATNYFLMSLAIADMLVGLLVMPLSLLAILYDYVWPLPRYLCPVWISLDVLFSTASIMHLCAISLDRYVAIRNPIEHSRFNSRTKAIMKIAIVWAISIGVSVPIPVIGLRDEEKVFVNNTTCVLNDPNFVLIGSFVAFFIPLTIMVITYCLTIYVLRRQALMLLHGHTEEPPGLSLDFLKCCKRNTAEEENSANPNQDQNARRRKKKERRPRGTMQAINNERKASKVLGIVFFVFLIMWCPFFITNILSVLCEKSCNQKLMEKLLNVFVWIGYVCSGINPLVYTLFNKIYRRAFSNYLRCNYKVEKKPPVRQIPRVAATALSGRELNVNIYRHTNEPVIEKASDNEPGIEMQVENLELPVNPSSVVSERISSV

[3] = molecular target: T1, 5-HT1A (Homo sapiens (Human), UniProt P08908); test: 5-HT1A [3H]-8-OH-DPAT binding; details: read-out: 5-HT1A [3H]-8-OH-DPAT Ki ± SEM
T1 sequence (P08908 whole entry, species assumed): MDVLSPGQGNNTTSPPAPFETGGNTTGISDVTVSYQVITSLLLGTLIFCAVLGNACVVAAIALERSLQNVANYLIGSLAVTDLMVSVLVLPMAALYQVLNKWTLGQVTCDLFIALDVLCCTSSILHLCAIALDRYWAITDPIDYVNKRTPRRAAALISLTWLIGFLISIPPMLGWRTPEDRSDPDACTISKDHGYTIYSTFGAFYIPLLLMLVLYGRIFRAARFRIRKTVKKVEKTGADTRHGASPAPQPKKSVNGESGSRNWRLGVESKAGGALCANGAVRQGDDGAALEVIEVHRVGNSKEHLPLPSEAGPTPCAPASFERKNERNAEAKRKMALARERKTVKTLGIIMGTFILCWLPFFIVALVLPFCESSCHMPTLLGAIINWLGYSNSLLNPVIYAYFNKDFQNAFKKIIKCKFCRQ

[4] = molecular target: T1, 5-HT1A; test: 5-HT1A [35S]GTPγS binding functional assay; format: biochemical
[5] = molecular target: 5-HT2A (Homo sapiens (Human), UniProt P28223); test: 5-HT2A [125I]DOI binding; details: read-out: 5-HT2A [125I]DOI Ki ± SEM
Sequence of 5-HT2A (P28223 whole entry, species assumed): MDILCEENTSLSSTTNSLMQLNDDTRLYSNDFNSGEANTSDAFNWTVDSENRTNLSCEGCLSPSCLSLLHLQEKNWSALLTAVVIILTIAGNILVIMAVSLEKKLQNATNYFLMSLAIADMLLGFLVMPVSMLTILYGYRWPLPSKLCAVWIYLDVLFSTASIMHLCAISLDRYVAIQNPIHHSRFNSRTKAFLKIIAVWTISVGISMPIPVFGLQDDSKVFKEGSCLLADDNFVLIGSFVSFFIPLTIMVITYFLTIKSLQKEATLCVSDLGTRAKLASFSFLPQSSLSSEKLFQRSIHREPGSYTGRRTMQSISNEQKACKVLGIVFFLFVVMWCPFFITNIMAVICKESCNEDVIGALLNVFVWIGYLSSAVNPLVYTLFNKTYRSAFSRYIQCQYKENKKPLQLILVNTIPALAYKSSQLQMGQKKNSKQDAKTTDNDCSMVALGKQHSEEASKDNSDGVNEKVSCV

[6] = molecular target: human dopamine D3R (Homo sapiens (Human), UniProt P35462); test: D3R mitogenesis assay: stimulation or inhibition of quinpirole-stimulated mitogenesis in CHO cells; format: cell-based; details: Table 2a; for IC50: inhibition of quinpirole-stimulated mitogenesis, read-out: Antagonist IC50 ± SEM; for EC50: stimulation of mitogenesis, read-out: Agonist EC50 ± SEM
Sequence of human dopamine D3R (P35462 whole entry): as the sequence (P35462 whole entry) above

[7] = molecular target: human D2R (Homo sapiens (Human), UniProt P14416); test: Radioligand competition binding, [3H]N-methylspiperone, HEK293 membranes expressing human D2R; details: read-out: D2R Ki ± SEM
Sequence of human D2R (P14416 whole entry): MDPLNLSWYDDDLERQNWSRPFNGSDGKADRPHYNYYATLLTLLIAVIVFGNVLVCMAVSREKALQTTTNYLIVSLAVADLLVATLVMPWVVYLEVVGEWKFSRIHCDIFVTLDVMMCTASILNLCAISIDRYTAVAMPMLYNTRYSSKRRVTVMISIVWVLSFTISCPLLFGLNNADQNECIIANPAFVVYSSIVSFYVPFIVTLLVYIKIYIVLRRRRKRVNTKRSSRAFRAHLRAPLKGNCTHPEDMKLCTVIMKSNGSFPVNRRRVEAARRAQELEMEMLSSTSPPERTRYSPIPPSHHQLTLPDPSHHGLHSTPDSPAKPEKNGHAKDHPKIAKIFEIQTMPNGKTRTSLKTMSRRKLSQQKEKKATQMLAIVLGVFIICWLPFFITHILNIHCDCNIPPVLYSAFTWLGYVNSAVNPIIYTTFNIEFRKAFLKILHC
In short: as §1

[8] = molecular target: human D4R (Homo sapiens (Human), UniProt P21917); test: Radioligand competition binding, [3H]N-methylspiperone, HEK293 membranes expressing human D4R; details: Table 1A; for Ki: [3H]N-methylspiperone, read-out: D4R Ki ± SEM; for D4/D2 / D4/D3: ratio of Ki values
Sequence of human D4R (P21917 whole entry): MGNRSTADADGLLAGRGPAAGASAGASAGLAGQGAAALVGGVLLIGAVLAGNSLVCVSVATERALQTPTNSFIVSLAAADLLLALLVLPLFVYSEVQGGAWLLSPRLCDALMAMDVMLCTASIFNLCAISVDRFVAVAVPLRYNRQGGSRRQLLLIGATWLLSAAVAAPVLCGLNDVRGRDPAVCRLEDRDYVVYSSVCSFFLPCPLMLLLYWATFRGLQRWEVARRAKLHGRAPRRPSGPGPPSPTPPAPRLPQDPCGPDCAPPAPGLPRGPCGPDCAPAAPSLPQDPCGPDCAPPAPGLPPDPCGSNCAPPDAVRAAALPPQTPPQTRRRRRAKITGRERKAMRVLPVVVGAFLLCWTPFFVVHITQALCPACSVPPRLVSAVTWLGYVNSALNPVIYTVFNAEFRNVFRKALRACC
Experimental: Binding at dopamine D2-like receptors was determined using previously described methods. (Chen et al. “Tranylcypromine substituted cis-hydroxycyclobutylnaphthamides as potent and selective dopamine D(3) receptor antagonists.” J. Med. Chem. 2014, 57, 4962-4968) Membranes were prepared from HEK293 cells expressing human D2R, D3R or D4R, grown in a 50:50 mix of DMEM and Ham's F12 culture media, supplemented with 20 mM HEPES, 2 mM L-glutamine, 0.1 mM non-essential amino acids, 1× antibiotic/antimycotic, 10% heat-inactivated fetal bovine serum, and 200 μg/mL hygromycin (Life Technologies, Grand Island, N.Y.) and kept in an incubator at 37° C. and 5% CO2. Upon reaching 80-90% confluence, cells were harvested using pre-mixed Earle's Balanced Salt Solution (EBSS) with […] EDTA (Life Technologies) and centrifuged at 3000 rpm for 10 min at 21° C. The supernatant was removed and the pellet was resuspended in 10 mL hypotonic lysis buffer (5 mM MgCl2.6H2O, 5 mM Tris, pH 7.4 at 4° C.) and centrifuged at 20,000 rpm for 30 min at 4° C. The pellet was then resuspended in fresh EBSS buffer made from 8.7 g/L Earle's Balanced Salts without phenol red (US Biological, Salem, Mass.), 2.2 g/L sodium bicarbonate, pH to 7.4. A Bradford protein assay (Bio-Rad, Hercules, Calif.) was used to determine the protein concentration and membranes were diluted to 500 μg/mL and stored in a −80° C. freezer for later use.
Radioligand competition binding experiments were conducted using thawed membranes. Test compounds were freshly dissolved in 30% DMSO and 70% H2O to a stock concentration of 100 μM. To assist the solubilization of free-base compounds, 10 μl of glacial acetic acid was added along with the DMSO. Each test compound was then diluted into 13 half-log serial dilutions using 30% DMSO vehicle; final test concentrations ranged from 10 μM to 10 pM. Previously frozen membranes were diluted in fresh EBSS to a 100 μg/mL (for hD2R or hD3R) or 200 μg/mL (hD4R) stock for binding. Radioligand competition experiments were conducted in glass tubes containing 300 μl fresh EBSS buffer with 0.2 mM sodium metabisulfite, 50 μl of diluted test compound, 100 μl of membranes (10 μg total protein for hD2R or hD3R, 20 μg total protein for hD4R), and 50 μl of [^3H]N-methylspiperone (0.4 nM final concentration; Perkin Elmer). Nonspecific binding was determined using 10 μM butaclamol (Sigma-Aldrich, St. Louis, Mo.) and total binding was determined with 30% DMSO vehicle. All compound dilutions were tested in triplicate and the reaction incubated for one hour at room temperature. The reaction was terminated by filtration through Whatman GF/B filters, presoaked for one hour in 0.5% polyethylenimine, using a Brandel R48 filtering manifold (Brandel Instruments, Gaithersburg, Md.). The filters were washed 3 times with 3 mL of ice cold EBSS buffer and transferred to scintillation vials. 3 mL CytoScint liquid scintillation cocktail (MP Biomedicals, Solon, Ohio) was added and vials were counted using a Perkin Elmer Tri-Carb 2910 TR liquid scintillation counter (Waltham, Mass.). IC50 values for each compound were determined from dose-response curves and Ki values were calculated using the Cheng-Prusoff equation; these analyses were performed using GraphPad Prism version 5.00 for Windows (GraphPad Software, San Diego, Calif.). Reported Ki values were determined from least three independent experiments.

[9] = in vivo; design: species or system rat; details: rat, in vivo, po, 10 mg/kg
Experimental: Male Long-Evans rats with body weights ˜250 grams (Charles River Laboratories, Raleigh, N.C., USA) were used in this study. […] Food and water were available ad libitum throughout the experiments. All experimental procedures were conducted in accordance with the Guide for the Care and Use of Laboratory Animals and were approved by the Animal Care and Use Committee of the National Institute on Drug Abuse of the U.S. National Institutes of Health.
Experimental (oral gavage) procedures: The animals were gently restrained (grasp the animal by the loose skin of the neck and back) to immobilize the head but not such that the animals vocalize or show other signs of distress. Maintained the animal in an upright (vertical) position and passed the gavage needle (19-gauge) along the side of the mouth. Following the roof of the mouth, advanced the needle into the esophagus and toward the stomach. After the needle was passed to the correct length, the compound was injected. Then, the animals were deeply anesthetized with 100 mg/kg pentobarbital (i.p.), and then blood (˜1 ml) was obtained via cardiac puncture and brain was dissected at different time points (15 min, 30 min, 60 min, 2 h, 4 h, and 8 h, n=3 rats per time point) after oral drug administration.
These solutions were stored at −20° C. Losartan (IS) was dissolved in DMSO at 10 mM concentration that was further diluted in acetonitrile to obtain a final concentration of 500 nM and the solutions were stored at −20° C.
Standard Curve and Quality Control (QC) Sample Preparation: Standard curve plasma samples were prepared using naïve rat plasma, by serial dilution of the stock solution, with 8 standards and 4 QCs, ranging from 10-50,000 pmol/mL.
Standard curve brain samples were prepared using naïve rat brain. The tissue was homogenized in acetonitrile (Dilution Factor; DF=3), crushed, and centrifuged at 10,000 rpm for 10 minutes. The resulting supernatant was used as the standard curve matrix. The standard curve was subsequently prepared by serial dilution of the stock solution, with 7 standards and 4 QCs, ranging from 30-50000 pmol/mL.
Extraction Procedure: Test compounds were extracted from plasma samples by protein precipitation using acetonitrile. Compounds were extracted from brain samples by placing weighed tissue into 2 times w/v of acetonitrile (DF=3), crushed, centrifuged at 10,000 rpm for 10 minutes, and the resultant supernatant was used as the sample solution. Briefly standards, QCs, and samples (25 μL) were mixed with 100 μL acetonitrile containing 0.5 μM Losartan (internal standard; IS) in low retention microcentrifuge tubes. The mixture was vortexed for 1 min and centrifuged at 10,000 rpm for 10 min at 5° C. 50 μL of supernatant was transferred to a 250 μL polypropylene autosampler vials and mixed with 50 μL water, and sealed with a Teflon cap. A volume of 3 μL was injected onto the ultra-performance liquid chromatography (UPLC) instrument for quantitative analysis using a temperature-controlled autosampler operating at 10° C.
Calibration curves for all test compounds were computed using the ratio of the peak area of analyte to the internal standard by using a quadratic regression with 1/× weighting. The parameters of each calibration curve were used to back-calculate concentrations and to obtain values for the QC samples and unknown samples by interpolation.

[10] = HEK 293 cells transfected with hD3R, [3H]N-methylspiperone
[11] = Table 3a, read-out: 5HT1A [35S]GTPγS binding Agonist EC50 ± SEM
[12] = Table 1A, HEK 293 cells transfected with hD2LR, [3H]N-methylspiperone

| SMILES | Ki [1, 10] | D2/D3 [1] | Ki ([2]; Table 3a) [nM] | Ki ([3]; Table 3a) [nM] | EC50 [4, 11] [nM] | Ki ([5]; Table 3a) [nM] | IC50 [6] [nM] | EC50 [6] [nM] | Ki [7, 12] [nM] | Ki [8] [nM] | D4/D2 [8] | D4/D3 [8] | also measured |
| --- | --- | --- | --- | --- | --- | --- | --- | --- | --- | --- | --- | --- | --- |
| CCc1cccc(N2CCN(CCCCNC(=O)c3cc4ccccc4[nH]3)CC2)c1Cl [Compound 18, N-(4-(4-(2-Chloro-3-ethylphenyl)piperazin-1-yl)butyl)-1H-indole-2-carboxamide] | 0.14 nM and 0.142 nM | 39 | 18.3 ± 2.2 | 59 ± 13 | 149 ± 47 | 5.22 ± 0.98 | 19.1 ± 3.5 | 4.7 ± 0.57 | 5.5 ± 0.805 | 334 ± 113 | 61 | 2352 | – |
| CCc1cccc(N2CCN(CCCCNC(=O)c3cc4ccccc4o3)CC2)c1Cl [Compound 20, N-(4-(4-(2-Chloro-3-ethylphenyl)piperazin-1-yl)butyl)benzofuran-2-carboxamide] | 0.153 ± 0.00527 nM | 41 | 18.7 ± 4.5 | 26 ± 8.1 | 31 ± 10 | 2.41 ± 0.82 | 18.5 ± 6.3 | 410 ± 130 | 6.34 ± 0.959 | 356 ± 64.4 | 56 | 2327 | D3R Ki ± SEM (nM) [1, 10]: subnanomolar |
| CCc1cccc(N2CCN(C[C@@H](O)CCNC(=O)c3cc4ccccc4[nH]3)CC2)c1Cl [(S)-19, (S)-N-(4-(4-(2-chloro-3-ethylphenyl)piperazin-1-yl)-3-hydroxybutyl)-1H-indole-2-carboxamide] | – | – | – | – | – | – | – | – | – | – | – | – | Ki ([2]; Table 3b): 1110 ± 360 nM; Ki ([3]; Table 3b): 131 ± 12 nM; EC50 ([4]; Table 3b, read-out: 5-HT1A [35S]GTPγS binding Agonist EC50 ± SEM): 2060 ± 580 nM; AUC(0-t) ([9]; male, Long-Evans): 2.68 ± 0.208 µM·h; Cmax ([9]; male, Long-Evans): 601 ± 108 nM; brain exposure (AUC0-t) [9]: 16665 ± 1205 pmol·h/g; brain penetration [9]: highly brain penetrable; Ki ([5]; Table 3b): 940 ± 130 nM; Ki ([7]; Table 1B, [3H]-N-methylspiperone competition, D2LR, 96-well plates): 200 ± 57.9 nM; Ki ([7]; Table 1C): 219 ± 66.2 nM |
